Earlier results on two compounds are cited in article PMC6114101 (International Journal for Parasitology: Drugs and Drug …, 2018).

Molecules are shown by their SMILES.

One data set deals with N. caninum. The conditions noted are these: ref Ojo et al., 2014; Winzer et al., 2015; Müller et al., 2017a.
The conditions of data set [1]: ref Ojo et al., 2013.
In data set [2] the test system is human ether-a-go-go-related gene (hERG) ion channel. The conditions noted are these: ref Vidadala et al., 2016.

Take `CCOc1ccc2cc(-c3nn(C(C)(C)C)c(N)c3C(N)=O)cnc2c1` [BKI-1517]: the “activity against N. caninum in vitro” value in the data set with N. caninum is recorded as “effective”.
On to `CCOc1ccc2cc(-c3nn(CC4CCN(C)CC4)c4ncnc(N)c34)ccc2c1` [BKI-1294], for which the excreted in urine in data set [1] is 1%. In addition, in the data set on N. caninum, the “activity against N. caninum in vitro” value is listed as “effective”. Also, the hERG inhibition entry in data set [2] was “potent”.
